Results from ChEMBL document CHEMBL1201862, “PubChem BioAssay data set” (2004).
Activity calls are given as the source filed them.

Assays:
[1] = inhibitors of Bluetongue virus cytopathic effect, confirmation, arbovirus, BSR cells (AID 1250); assay type: functional;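 also: protection from viral cytopathic effect measured as cell viability by ATP luminescence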
[2] = cells; assay type: functional, cell-based
[3] = target: T1, Mannose-6-phosphate isomerase (Homo sapiens, UniProt P34949); assay: human PMI inhibitors, high substrate, primary screen, biochemical, fluorescence intensity, high mannose 6-phosphate (AID 1220)
T1 sequence (P34949 whole entry): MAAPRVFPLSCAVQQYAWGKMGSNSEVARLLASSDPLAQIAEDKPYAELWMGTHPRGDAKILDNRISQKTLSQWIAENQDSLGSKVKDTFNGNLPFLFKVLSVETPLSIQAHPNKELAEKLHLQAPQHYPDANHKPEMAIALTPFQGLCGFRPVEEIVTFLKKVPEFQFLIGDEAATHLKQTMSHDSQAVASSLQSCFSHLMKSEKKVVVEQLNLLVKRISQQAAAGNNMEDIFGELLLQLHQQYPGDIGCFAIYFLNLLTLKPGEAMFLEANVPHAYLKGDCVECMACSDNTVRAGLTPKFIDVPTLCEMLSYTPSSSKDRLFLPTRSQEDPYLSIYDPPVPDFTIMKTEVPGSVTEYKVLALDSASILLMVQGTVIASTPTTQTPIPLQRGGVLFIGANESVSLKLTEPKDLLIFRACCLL

[4] = target: Large T antigen (Simian virus 40, UniProt P03070); assay type: functional, Betapolyomavirus macacae;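 also: Confirmatory-stage PubChem screen for compounds that inhibit SV40 T antigen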
[5] = target: Nonstructural protein 1 (Influenza A virus, UniProt Q194T2); assay type: functional, Influenza A virus (A/California/07/2009(H1N1))
[6] = cells; assay type: functional, cell-based; remark: listed apart in the source
[7] = test system: INS1; assay: beta cell apoptosis inhibitors, cytokine rescue, dose response, luminescence, retest (AID 449756); assay type: functional, cell-based; details: Rattus norvegicus;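 also: cell death triggered by IL-1 beta plus TNF-alpha plus IFN-gamma mixture; protective hits raise ATP signal compared with cytokine alone wells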
[8] = target: T2, Histone-lysine N-methyltransferase NSD2 (Homo sapiens, UniProt O96028); assay type: biochemical
T2 sequence (O96028 whole entry): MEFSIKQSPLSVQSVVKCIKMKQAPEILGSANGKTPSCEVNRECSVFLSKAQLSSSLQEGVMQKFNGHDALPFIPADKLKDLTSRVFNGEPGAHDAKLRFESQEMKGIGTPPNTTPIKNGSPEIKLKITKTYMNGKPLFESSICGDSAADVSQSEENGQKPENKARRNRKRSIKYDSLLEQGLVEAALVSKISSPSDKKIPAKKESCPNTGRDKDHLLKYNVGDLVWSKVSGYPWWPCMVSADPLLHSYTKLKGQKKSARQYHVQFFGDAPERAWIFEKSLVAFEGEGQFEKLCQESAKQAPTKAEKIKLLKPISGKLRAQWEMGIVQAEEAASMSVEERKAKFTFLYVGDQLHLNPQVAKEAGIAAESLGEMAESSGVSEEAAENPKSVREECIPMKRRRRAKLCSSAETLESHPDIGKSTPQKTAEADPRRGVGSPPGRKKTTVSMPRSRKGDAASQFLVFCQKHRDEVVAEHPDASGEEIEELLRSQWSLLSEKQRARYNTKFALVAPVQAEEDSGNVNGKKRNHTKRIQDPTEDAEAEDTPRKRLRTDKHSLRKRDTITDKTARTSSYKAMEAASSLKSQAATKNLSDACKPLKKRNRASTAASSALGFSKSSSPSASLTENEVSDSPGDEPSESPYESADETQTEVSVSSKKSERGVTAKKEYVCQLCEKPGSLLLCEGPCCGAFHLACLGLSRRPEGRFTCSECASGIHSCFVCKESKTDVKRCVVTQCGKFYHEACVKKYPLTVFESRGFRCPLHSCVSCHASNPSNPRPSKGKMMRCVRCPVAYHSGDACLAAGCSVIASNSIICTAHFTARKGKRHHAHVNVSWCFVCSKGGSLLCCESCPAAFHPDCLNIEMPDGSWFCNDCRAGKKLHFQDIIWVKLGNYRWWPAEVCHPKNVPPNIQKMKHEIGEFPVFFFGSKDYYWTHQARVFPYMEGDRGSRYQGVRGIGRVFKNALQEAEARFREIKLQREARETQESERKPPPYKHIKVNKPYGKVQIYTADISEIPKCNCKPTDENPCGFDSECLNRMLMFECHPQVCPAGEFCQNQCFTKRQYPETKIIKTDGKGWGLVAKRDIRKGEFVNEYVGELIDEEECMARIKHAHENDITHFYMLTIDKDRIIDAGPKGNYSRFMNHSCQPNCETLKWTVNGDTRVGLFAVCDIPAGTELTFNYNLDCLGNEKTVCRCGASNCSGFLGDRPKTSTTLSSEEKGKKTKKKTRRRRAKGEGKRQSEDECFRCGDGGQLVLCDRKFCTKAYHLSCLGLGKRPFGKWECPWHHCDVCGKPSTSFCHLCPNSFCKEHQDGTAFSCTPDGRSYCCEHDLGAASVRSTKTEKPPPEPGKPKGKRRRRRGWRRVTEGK

[9] = enhancers of respiration in Yfh1-depleted yeast, dose response, Friedreich's ataxia, plus single-dose screen (AID 1465); assay type: functional;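 also: yeast depleted of Yfh1p frataxin homolog grown on glycerol needing respiration; WST-1 tetrazolium dye reduction as measure of cellular dehydrogenase metabolic activity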
[10] = target: Cytochrome P450 2C19 (Homo sapiens, UniProt P33261); assay: Cytochrome panel assay with activity outcomes. Panel member name: p450-cyp2c19 Compounds with AC50 equal or less than 10 uM are considered active; assay type: functional; details: read-out: AC50
[11] = target: Peroxisome proliferator-activated receptor gamma/Nuclear receptor coactivator 2 (Homo sapiens, UniProt P37231); assay type: functional;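 also: agonist potency for raising coactivator recruitment to the receptor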
[12] = target: Peroxisome proliferator-activated receptor gamma/Nuclear receptor coactivator 3 (Homo sapiens, UniProt P37231); assay type: functional;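 also: agonist potency for raising coactivator recruitment to the receptor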
[13] = target: T3, Cytochrome P450 1A2 (Homo sapiens, UniProt P05177);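 also: PubChem cytochrome P450 panel assay, CYP1A2 panel member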
T3 sequence (P05177 whole entry): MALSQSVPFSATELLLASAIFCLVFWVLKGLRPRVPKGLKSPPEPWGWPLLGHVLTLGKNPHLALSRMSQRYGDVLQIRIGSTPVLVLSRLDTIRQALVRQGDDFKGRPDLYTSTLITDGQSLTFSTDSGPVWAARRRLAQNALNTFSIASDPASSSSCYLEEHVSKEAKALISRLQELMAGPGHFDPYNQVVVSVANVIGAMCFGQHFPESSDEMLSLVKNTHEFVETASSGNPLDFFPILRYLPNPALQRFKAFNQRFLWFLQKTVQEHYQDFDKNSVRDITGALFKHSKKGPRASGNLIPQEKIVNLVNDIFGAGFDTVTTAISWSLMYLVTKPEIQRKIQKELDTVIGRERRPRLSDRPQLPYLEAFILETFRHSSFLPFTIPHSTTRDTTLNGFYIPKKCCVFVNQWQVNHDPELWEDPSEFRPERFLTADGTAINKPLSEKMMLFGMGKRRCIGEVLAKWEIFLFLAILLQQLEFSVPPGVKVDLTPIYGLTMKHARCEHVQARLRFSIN

[14] = target: Peroxisome proliferator-activated receptor gamma/Nuclear receptor coactivator 1 (Homo sapiens, UniProt P37231); assay type: functional;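 also: agonist potency as compounds enhance coactivator SRC-1 recruitment to PPARgamma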
[15] = target: Trypsin (Sus scrofa, UniProt P00761); assay: porcine trypsin inhibitors, dose response, selectivity assay for Rce1 protease inhibitor project, biochemical, quenched peptide fluorescence, cherry-pick (AID 488789)
[16] = target: T4, CAAX prenyl protease 2 (Saccharomyces cerevisiae S288c, UniProt Q03530); assay type: biochemical
T4 sequence (Q03530 whole entry): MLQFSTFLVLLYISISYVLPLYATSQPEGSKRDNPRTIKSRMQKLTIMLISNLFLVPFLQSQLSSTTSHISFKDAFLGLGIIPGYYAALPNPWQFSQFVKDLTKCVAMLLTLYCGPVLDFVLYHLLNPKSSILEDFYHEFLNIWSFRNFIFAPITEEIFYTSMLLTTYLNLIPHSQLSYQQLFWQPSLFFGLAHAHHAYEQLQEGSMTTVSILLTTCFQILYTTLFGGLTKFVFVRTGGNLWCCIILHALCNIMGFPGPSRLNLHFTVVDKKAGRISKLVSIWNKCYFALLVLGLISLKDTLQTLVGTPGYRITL

[17] = target: Eukaryotic translation initiation factor 4H (Homo sapiens, UniProt Q15056); assay: human eIF4H binding inhibitors, primary screen, translation initiation inhibitor project, biochemical, uHTS, fluorescence polarization (AID 2012)
[18] = target: Polyadenylate-binding protein 1 (Homo sapiens, UniProt P11940); assay: PABP poly(A) RNA binding inhibitors, primary screen, biochemical, fluorescence polarization, uHTS (AID 2014)
[19] = target: T5, Heat shock factor protein 1 (Mus musculus, UniProt P38532); assay: inhibition of MG132-induced HSE-luciferase signal, confirmation, cell-based, NIH3T3, luminescence, dose retest (AID 2382); assay type: functional;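 also: NIH3T3 fibroblasts with HSF1-driven luciferase reporter stressed by proteasome inhibitor MG132; luminescence from HSF1-driven luciferase expression after 8 hours of MG132 stress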
T5 sequence (P38532 whole entry): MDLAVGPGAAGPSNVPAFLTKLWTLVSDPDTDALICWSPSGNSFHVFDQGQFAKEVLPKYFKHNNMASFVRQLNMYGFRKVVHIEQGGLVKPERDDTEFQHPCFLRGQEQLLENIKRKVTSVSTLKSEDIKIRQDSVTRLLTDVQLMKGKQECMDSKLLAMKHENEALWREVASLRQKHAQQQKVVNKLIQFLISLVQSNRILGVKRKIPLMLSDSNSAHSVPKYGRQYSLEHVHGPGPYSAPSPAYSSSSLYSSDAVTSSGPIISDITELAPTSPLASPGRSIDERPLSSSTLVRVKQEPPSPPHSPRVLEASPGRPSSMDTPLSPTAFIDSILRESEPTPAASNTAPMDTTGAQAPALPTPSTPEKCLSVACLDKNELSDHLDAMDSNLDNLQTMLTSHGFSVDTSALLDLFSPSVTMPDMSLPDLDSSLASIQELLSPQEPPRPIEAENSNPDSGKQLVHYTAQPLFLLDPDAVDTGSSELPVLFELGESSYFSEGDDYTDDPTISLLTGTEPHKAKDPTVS

[20] = target: T6, Estrogen receptor (Homo sapiens, UniProt P03372); assay: ERα–SRC-3 coactivator interaction inhibitors, confirmation, orthogonal assay, biochemical, ELISA, streptavidin-HRP readout (AID 1079)
T6 sequence (P03372 whole entry): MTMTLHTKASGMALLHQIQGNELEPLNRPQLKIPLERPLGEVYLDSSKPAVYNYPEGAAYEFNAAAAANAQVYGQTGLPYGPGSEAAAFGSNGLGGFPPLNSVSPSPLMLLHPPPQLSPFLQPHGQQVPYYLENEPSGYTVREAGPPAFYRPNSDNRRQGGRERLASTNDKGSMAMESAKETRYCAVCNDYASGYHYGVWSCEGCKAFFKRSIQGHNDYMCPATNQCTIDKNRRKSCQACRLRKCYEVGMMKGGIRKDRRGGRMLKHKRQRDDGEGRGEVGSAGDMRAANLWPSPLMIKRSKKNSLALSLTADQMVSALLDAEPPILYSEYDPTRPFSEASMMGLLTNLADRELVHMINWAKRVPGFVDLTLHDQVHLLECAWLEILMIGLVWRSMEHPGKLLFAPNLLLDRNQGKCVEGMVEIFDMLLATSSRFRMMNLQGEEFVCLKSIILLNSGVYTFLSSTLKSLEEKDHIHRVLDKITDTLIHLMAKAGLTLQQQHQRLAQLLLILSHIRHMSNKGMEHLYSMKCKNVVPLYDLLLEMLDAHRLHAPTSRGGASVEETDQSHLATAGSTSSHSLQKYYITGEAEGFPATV

[21] = target: Cytochrome P450 2D6 (Homo sapiens, UniProt P10635); assay: qHTS Assay for Inhibitors and Substrates of Cytochrome P450 2D6. [Related pubchem assays: 410 ]; assay type: ADME; details: read-out: Potency
[22] = target: Cytochrome P450 3A4 (Homo sapiens, UniProt P08684); details: Potency;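 also: confirmatory qHTS run detecting inhibitors and substrates of CYP3A4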
Sequence of Cytochrome P450 3A4 (P08684 whole entry): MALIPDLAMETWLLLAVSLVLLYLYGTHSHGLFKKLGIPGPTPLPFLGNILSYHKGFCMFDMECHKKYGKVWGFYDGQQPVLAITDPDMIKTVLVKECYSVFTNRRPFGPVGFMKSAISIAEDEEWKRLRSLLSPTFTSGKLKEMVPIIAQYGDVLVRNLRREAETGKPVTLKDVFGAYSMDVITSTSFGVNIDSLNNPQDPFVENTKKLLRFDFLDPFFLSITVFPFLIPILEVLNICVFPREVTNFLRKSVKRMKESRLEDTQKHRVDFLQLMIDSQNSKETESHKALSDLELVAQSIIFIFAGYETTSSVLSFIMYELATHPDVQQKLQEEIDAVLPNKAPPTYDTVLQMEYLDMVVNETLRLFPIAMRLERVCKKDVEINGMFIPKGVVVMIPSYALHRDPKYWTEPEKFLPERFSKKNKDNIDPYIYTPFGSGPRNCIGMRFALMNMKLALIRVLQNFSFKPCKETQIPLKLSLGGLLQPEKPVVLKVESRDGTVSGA

Sequence of Polyadenylate-binding protein 1 (P11940 whole entry): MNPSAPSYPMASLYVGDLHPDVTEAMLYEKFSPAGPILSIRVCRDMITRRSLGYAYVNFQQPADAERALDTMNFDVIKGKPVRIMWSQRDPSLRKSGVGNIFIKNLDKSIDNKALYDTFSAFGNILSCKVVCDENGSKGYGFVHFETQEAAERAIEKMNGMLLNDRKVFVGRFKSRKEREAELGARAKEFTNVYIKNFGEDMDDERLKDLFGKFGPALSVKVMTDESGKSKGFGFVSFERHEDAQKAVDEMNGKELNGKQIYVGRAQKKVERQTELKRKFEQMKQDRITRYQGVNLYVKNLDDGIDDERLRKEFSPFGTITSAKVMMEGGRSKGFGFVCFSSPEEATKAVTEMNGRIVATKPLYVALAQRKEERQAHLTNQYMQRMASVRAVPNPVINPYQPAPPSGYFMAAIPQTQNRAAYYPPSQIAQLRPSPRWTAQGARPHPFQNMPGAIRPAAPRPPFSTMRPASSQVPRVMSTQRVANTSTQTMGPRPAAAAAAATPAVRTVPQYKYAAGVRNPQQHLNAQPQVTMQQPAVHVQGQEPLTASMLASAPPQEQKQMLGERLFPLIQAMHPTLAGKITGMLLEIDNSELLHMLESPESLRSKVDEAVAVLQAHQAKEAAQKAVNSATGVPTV
Sequence of Trypsin (P00761 whole entry): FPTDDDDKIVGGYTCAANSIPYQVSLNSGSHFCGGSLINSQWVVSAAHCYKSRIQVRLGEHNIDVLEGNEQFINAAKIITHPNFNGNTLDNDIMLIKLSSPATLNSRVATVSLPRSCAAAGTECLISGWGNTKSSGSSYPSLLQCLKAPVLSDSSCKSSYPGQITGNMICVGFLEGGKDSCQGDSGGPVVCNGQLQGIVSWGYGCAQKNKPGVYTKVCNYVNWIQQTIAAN
Sequence of Cytochrome P450 2D6 (P10635 whole entry): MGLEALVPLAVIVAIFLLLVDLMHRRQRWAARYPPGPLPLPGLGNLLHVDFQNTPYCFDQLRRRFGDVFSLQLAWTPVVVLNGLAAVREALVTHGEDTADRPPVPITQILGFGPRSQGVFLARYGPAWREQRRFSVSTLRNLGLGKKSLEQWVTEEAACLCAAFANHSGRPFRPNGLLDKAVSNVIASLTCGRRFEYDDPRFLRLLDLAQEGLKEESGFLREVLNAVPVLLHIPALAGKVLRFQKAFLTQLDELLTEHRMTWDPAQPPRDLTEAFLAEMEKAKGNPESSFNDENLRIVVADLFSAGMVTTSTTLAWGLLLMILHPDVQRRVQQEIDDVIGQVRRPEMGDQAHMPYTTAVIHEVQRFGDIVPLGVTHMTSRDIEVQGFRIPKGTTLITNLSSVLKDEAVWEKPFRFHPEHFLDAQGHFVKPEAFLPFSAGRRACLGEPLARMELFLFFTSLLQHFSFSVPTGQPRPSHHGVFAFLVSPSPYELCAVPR
Sequence of Peroxisome proliferator-activated receptor gamma/Nuclear receptor coactivator 3 (P37231 whole entry): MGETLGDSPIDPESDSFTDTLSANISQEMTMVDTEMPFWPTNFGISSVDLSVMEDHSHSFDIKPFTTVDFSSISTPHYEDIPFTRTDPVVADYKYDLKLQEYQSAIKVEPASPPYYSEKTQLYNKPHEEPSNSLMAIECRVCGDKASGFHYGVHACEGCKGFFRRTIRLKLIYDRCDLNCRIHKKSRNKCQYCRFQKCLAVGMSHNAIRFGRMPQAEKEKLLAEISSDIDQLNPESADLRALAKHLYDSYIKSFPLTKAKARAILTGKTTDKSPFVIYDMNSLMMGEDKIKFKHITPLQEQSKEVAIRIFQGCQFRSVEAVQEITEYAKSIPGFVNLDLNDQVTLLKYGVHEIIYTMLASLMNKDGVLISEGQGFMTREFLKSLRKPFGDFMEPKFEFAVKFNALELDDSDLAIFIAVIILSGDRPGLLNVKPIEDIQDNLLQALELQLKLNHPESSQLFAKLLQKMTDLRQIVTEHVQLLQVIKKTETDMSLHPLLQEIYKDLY
Sequence of Peroxisome proliferator-activated receptor gamma/Nuclear receptor coactivator 3 (Q9Y6Q9 whole entry, further chain): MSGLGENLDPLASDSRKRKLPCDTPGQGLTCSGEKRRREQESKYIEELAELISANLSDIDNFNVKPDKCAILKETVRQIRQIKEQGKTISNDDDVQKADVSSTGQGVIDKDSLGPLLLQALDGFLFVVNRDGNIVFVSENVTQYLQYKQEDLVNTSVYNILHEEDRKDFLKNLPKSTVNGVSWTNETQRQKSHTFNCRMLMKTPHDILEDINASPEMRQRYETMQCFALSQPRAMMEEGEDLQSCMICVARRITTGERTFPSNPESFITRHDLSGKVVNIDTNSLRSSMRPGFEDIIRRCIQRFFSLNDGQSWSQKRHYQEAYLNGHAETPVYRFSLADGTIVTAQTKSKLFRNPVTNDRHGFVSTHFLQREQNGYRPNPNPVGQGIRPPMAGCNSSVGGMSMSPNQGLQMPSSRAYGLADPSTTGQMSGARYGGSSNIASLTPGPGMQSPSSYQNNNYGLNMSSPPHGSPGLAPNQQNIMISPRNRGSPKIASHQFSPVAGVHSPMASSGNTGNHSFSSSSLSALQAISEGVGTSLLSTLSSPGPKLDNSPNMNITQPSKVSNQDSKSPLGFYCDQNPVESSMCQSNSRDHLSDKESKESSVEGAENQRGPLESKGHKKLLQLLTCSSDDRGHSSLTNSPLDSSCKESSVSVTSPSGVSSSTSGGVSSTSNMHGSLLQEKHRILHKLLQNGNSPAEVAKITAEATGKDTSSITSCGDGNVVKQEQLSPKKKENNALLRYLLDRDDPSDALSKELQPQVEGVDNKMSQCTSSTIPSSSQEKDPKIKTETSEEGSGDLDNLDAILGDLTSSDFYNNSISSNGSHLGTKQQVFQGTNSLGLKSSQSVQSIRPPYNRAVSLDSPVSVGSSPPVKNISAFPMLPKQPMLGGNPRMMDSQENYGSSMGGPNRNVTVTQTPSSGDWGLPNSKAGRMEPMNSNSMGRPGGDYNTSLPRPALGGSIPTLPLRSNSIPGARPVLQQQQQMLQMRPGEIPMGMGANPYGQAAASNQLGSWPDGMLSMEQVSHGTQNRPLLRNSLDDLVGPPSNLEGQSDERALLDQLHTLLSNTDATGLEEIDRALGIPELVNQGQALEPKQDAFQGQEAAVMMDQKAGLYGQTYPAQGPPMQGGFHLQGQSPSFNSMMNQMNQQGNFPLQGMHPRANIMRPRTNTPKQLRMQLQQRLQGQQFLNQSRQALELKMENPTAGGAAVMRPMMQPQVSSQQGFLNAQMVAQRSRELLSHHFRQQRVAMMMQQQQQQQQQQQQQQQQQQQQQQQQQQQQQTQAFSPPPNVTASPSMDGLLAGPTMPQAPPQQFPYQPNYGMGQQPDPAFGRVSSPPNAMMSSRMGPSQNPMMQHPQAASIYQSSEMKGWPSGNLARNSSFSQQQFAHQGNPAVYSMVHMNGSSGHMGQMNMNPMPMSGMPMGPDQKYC
Sequence of Large T antigen (P03070 whole entry): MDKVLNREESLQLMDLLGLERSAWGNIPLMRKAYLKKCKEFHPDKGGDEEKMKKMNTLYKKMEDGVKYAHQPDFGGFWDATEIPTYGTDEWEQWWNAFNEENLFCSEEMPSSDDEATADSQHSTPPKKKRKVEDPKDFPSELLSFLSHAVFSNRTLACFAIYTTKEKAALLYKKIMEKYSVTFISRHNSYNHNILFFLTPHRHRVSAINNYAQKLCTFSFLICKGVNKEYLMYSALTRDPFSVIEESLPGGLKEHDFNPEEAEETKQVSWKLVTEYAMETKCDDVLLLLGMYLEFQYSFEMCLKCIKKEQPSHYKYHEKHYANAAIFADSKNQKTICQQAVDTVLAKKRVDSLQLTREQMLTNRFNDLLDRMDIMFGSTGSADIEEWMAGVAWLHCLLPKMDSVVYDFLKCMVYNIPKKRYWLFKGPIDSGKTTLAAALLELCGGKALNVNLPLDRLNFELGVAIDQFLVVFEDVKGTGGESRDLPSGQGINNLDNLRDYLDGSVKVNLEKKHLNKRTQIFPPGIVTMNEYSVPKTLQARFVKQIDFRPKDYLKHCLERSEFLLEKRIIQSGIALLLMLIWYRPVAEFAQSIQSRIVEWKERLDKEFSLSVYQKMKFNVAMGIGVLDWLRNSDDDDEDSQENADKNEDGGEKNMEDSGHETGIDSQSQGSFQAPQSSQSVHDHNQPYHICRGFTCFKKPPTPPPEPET
Sequence of Nonstructural protein 1 (Q194T2 whole entry): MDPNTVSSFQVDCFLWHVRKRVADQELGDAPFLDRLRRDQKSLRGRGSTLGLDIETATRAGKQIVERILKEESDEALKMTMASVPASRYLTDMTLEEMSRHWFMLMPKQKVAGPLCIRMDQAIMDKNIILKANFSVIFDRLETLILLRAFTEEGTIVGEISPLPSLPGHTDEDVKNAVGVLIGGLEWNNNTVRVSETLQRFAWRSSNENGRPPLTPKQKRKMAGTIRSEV

## Cc1ccc2nc(NC(=O)C3=NN(c4ccccc4)C(=O)CC3)sc2c1
[1]
  IC50: 29 µM (active)

## Oc1cccc(/C=N/NC(=S)Nc2cccnc2)c1O
[2]
  EC50: 83 µM (active)
[3]
  IC50: 16.1 µM (active)
[4]
  IC50: 15 µM (active)
[5]
  IC50: 1.83 µM (active)
[6]
  EC50: 13.6 µM (active)
[7]
  AC50: 0.976 µM (active)
[8]
  AC50: 12.4 µM (active)
[9]
  EC50: > 100 µM (active)

## CCOC(=O)CC(=O)CSc1nc(-c2ccccc2)cc(-c2ccc(Cl)cc2)c1C#N
[10]
  AC50: 7.08 µM (inconclusive)
[11]
  EC50: 14.8 µM (not active)
[12]
  EC50: 18.7 µM (not active)
[13]
  AC50: 2.24 µM (inconclusive)
[14]
  EC50: 16.4 µM (not active)

## Nc1ccc2c(C(F)(F)F)cc(C(F)(F)F)nc2n1
[15]
  AC50: 10.7 µM (active)
[16]
  AC50: > 100 µM (inactive)

## CC(C)Oc1ccc(OCCSc2nc3ccccc3n2CC(=O)O)cc1
[17]
  IC50: > 100 µM (inactive)
[18]
  IC50: 11.5 µM (active)
[19]
  EC50: > 195 µM (not active)

## CCC(c1nnc(SCCNCCO)n1CCN1CCOCC1)N(C)C (configuration not stated)
[17]
  IC50: > 100 µM (inactive)
[18]
  IC50: 7.33 µM (active)

## O=C(CCCn1c(=S)[nH]c2ccccc2c1=O)N1CCN(c2cccc3ccccc23)CC1
[20]
  IC50: 0.07 µM (not active)

## O=C(CCCCCn1c(=S)[nH]c2ccccc2c1=O)N1CCC(O)(c2ccc(Cl)cc2)CC1
[20]
  IC50: 0.08 µM (not active)

## CCCNC(=O)C(CC)NS(=O)(=O)c1ccc(OC)cc1 (configuration not stated)
[11]
  EC50: > 79.4 µM (not active)
[12]
  EC50: > 79.4 µM (not active)
[14]
  EC50: > 79.4 µM (not active)

## c1ccc(-c2ccc(-c3cn4c(n3)CCC4)cc2)cc1
[15]
  AC50: 2.37 µM (active)
[16]
  AC50: 4.15 µM (active)

## CCCCCCC1=Cc2cc(OC)c(OC)cc2C(C(C(C)=O)C(=O)OCC)O1 (configuration not stated)
[21]
  AC50: 6.31 µM (inconclusive)
[22]
  AC50: 3.16 µM (inconclusive)

## O=c1c(O)c(-c2ccc(O)cc2)oc2cc(O)ccc12 [RESOKAEMPFEROL]
[21]
  AC50: 20 µM (inconclusive)
[22]
  AC50: 39.8 µM (inconclusive)
